Source: patent publication US20250304559A1, “Ether-Linked Antiviral Compounds” (Pfizer Inc., priority 2021, published 2025)
Where a name gives a salt, the structure may show the parent alone. Read-outs that look alike come from different tables or passages of the source.

Legend:
SARS-CoV-2 3CL protease = biological target: T1, SARS-CoV-2 3CL protease (Severe acute respiratory syndrome coronavirus 2, UniProt P0DTD1); experiment: SARS-CoV-2 Coronavirus 3C Protease FRET Assay; format: biochemical; details: Morrison equation fit, 15 nM enzyme, 25 μM peptide substrate
T1 construct: measures the activity of full-length SARS-CoV-2 3CL protease

[1] = test system: SARS-CoV-2 (USA_WA1/2020); experiment: Antiviral Activity from SARS-CoV-2 Infection (cytopathic effect, Cell Titer-Glo); format: cell-based; details: VeroE6 cells enriched for hACE2, MOI 0.002, 3-day incubation, tested alone or with P-gp inhibitor CP-100356 2 μM (table does not say which), read-out: Geometric Mean EC50
[2] = Examples 14-78 and 114 (second head of Table 2), read-out: Geometric Mean Ki (nM) IC50
[3] = Severe acute respiratory syndrome coronavirus 2, Vero C1008, 72 h
[4] = Examples 1-13, 60 minutes at 23° C., read-out: Geometric Mean Ki

## CC(C)C[C@@H](C(=O)N1C[C@H]2[C@@H]([C@H]1C(=O)N[C@@H](C[C@@H]1CCNC1=O)C(=O)COc1cc(C(F)(F)F)nn1C)C2(C)C)N(C)C(C)C (single isomer, unassigned) [Example 65, (1R,2S,5S)-6,6-dimethyl-3-[N-methyl-N-(propan-2-yl)-L-leucyl]-N-{(2R*)-4-{[1-methyl-3-(trifluoromethyl)-1H-pyrazol-5-yl]oxy}-3-oxo-1-[(3S)-2-oxopyrrolidin-3-yl]butan-2-yl}-3-azabicyclo[3.1.0]hexane-2-carboxamide, DIAST-1]
SARS-CoV-2 3CL protease; [2]
  Ki: 96.7 nM
[1]; [3]
  EC50: 133 nM

## CC(C)[C@H](NS(C)(=O)=O)C(=O)N1CCC2(CC2)C[C@H]1C(=O)N[C@@H](C[C@@H]1CCNC1=O)C(=O)COc1ccc(F)cc1F (single isomer, unassigned) [Example 66, (5R*)-N-{(2S)-4-(2,4-difluorophenoxy)-3-oxo-1-[(3S)-2-oxopyrrolidin-3-yl]butan-2-yl}-6-[N-(methanesulfonyl)-L-valyl]-6-azaspiro[2.5]octane-5-carboxamide, DIAST-2]
SARS-CoV-2 3CL protease; [2]
  Ki: 15.7 nM
[1]
  EC50: 669 nM

## CC(C)C[C@@H](C(=O)N1C[C@H]2[C@@H]([C@H]1C(=O)N[C@@H](C[C@@H]1CCNC1=O)C(=O)COc1cc(C(F)(F)F)nn1C)C2(C)C)N(C)C(C)C (single isomer, unassigned) [Example 73, (1R,2S,5S)-6,6-dimethyl-3-[N-methyl-N-(propan-2-yl)-L-leucyl]-N-{(2R*)-4-{[1-methyl-3-(trifluoromethyl)-1H-pyrazol-5-yl]oxy}-3-oxo-1-[(3S)-2-oxopyrrolidin-3-yl]butan-2-yl}-3-azabicyclo[3.1.0]hexane-2-carboxamide, DIAST-2]
SARS-CoV-2 3CL protease; [2]
  Ki: 962 nM
[1]
  EC50: 140 nM

## COCC(=O)[C@H](C[C@@H]1CCNC1=O)NC(=O)C1C[C@H](C(C)(C)C)CCN1C(=O)[C@@H](NS(=O)(=O)C(F)(F)F)C(C)C (single isomer, unassigned) [Example 77, (2R*,4S*)-4-tert-butyl-N-{(2S)-4-methoxy-3-oxo-1-[(3S)-2-oxopyrrolidin-3-yl]butan-2-yl}-1-[N-(trifluoromethanesulfonyl)-L-valyl]piperidine-2-carboxamide, DIAST-2]
SARS-CoV-2 3CL protease; [2]
  Ki: > 10800 nM
[1]; [3]
  EC50: > 100000 nM

## CCC(C(NC(=O)C(F)(F)F)C(=O)N1C[C@H]2[C@@H]([C@H]1C(=O)N[C@@H](C[C@@H]1CCNC1=O)C(=O)COc1ccc(F)cc1F)C2(C)C)C(F)(F)F (stereo in doubt) [Example 32, (1R,2S,5S)-N-{(2S)-4-(2,4-difluorophenoxy)-3-oxo-1-[(3S)-2-oxopyrrolidin-3-yl]butan-2-yl}-6,6-dimethyl-3-[3′,3′,3′-trifluoro-N-(trifluoroacetyl)-L-isoleucyl]-3-azabicyclo[3.1.0]hexane-2-carboxamide]
SARS-CoV-2 3CL protease; [2]
  Ki: 2.42 nM
[1]; [3]
  EC50: 98.9 nM

## CCC([C@H](NC(=O)C(F)(F)F)C(=O)N1C[C@H]2[C@@H]([C@H]1C(=O)N[C@@H](C[C@@H]1CCNC1=O)C(=O)COc1ccc(F)cc1F)C2(C)C)C(F)(F)F (stereo in doubt) [Example 57, (1R,2S,5S)-N-{(2S)-4-(2,4-difluorophenoxy)-3-oxo-1-[(3S)-2-oxopyrrolidin-3-yl]butan-2-yl}-6,6-dimethyl-3-[3′,3′,3′-trifluoro-N-(trifluoroacetyl)-L-isoleucyl]-3-azabicyclo[3.1.0]hexane-2-carboxamide]
SARS-CoV-2 3CL protease; [2]
  Ki: 17.3 nM
[1]; [3]
  EC50: 275 nM

## CCC([C@H](NS(=O)(=O)C(F)(F)F)C(=O)N1C[C@H]2[C@@H]([C@H]1C(=O)N[C@@H](C[C@@H]1CCNC1=O)C(=O)COc1ccc(F)cc1F)C2(C)C)C(F)(F)F (stereo in doubt) [Example 63, (1R,2S,5S)-N-{(2S)-4-(2,4-difluorophenoxy)-3-oxo-1-[(3S)-2-oxopyrrolidin-3-yl]butan-2-yl}-6,6-dimethyl-3-[3′,3′,3′-trifluoro-N-(trifluoromethanesulfonyl)-L-isoleucyl]-3-azabicyclo[3.1.0]hexane-2-carboxamide]
SARS-CoV-2 3CL protease; [2]
  Ki: 54.2 nM
[1]; [3]
  EC50: 5550 nM

## CC(C)[C@H](NC(=O)C(F)(F)F)C(=O)N1C[C@H]2[C@@H]([C@H]1C(=O)N[C@@H](C[C@@H]1CCNC1=O)C(=O)COc1ccc(F)cc1F)C2(C)C [Example 1, (1R,2S,5S)-N-{(2S)-4-(2,4-difluorophenoxy)-3-oxo-1-[(3S)-2-oxopyrrolidin-3-yl]butan-2-yl}-6,6-dimethyl-3-[N-(trifluoroacetyl)-L-valyl]-3-azabicyclo[3.1.0]hexane-2-carboxamide]
SARS-CoV-2 3CL protease; [4]
  Ki: 2.02 nM
[1]; [3]
  EC50: 26.9 nM

## CC(C)[C@H](NC(=O)C(F)(F)F)C(=O)N1C[C@H]2[C@@H]([C@H]1C(=O)N[C@H](C[C@@H]1CCNC1=O)C(=O)COc1ccc(F)cc1F)C2(C)C [Example 2, (1R,2S,5S)-N-{(2R)-4-(2,4-difluorophenoxy)-3-oxo-1-[(3S)-2-oxopyrrolidin-3-yl]butan-2-yl}-6,6-dimethyl-3-[N-(trifluoroacetyl)-L-valyl]-3-azabicyclo[3.1.0]hexane-2-carboxamide]
SARS-CoV-2 3CL protease; [4]
  Ki: 172 nM
[1]; [3]
  EC50: 74.4 nM

## CC(C)(C)[C@H](NS(=O)(=O)C(F)(F)F)C(=O)N1C[C@H]2[C@@H]([C@H]1C(=O)N[C@@H](C[C@@H]1CCNC1=O)C(=O)COc1ccc(F)cc1F)C2(C)C [Example 3, (1R,2S,5S)-N-{(2S)-4-(2,4-difluorophenoxy)-3-oxo-1-[(3S)-2-oxopyrrolidin-3-yl]butan-2-yl}-6,6-dimethyl-3-{3-methyl-N-[(trifluoromethyl)sulfonyl]-L-valyl}-3-azabicyclo[3.1.0]hexane-2-carboxamide]
SARS-CoV-2 3CL protease; [4]
  Ki: 3.5 nM
[1]; [3]
  EC50: 207 nM

## CC(C)[C@H](NS(=O)(=O)C(F)(F)F)C(=O)N1C[C@H]2[C@@H]([C@H]1C(=O)N[C@@H](C[C@@H]1CCNC1=O)C(=O)COc1ccc(F)cc1F)C2(C)C [Example 4, (1R,2S,5S)-N-{(2S)-4-(2,4-difluorophenoxy)-3-oxo-1-[(3S)-2-oxopyrrolidin-3-yl]butan-2-yl}-6,6-dimethyl-3-{N-[(trifluoromethyl)sulfonyl]-L-valyl}-3-azabicyclo[3.1.0]hexane-2-carboxamide]
SARS-CoV-2 3CL protease; [4]
  Ki: 6.34 nM
[1]; [3]
  EC50: 395 nM

## CC(C)[C@H](NS(=O)(=O)C(F)(F)F)C(=O)N1C[C@H]2[C@@H]([C@H]1C(=O)N[C@@H](C[C@@H]1CCNC1=O)C(=O)COc1cccc(C(F)(F)F)c1)C2(C)C [Example 5, (1R,2S,5S)-6,6-dimethyl-N-{(2S)-3-oxo-1-[(3S)-2-oxopyrrolidin-3-yl]-4-[3-(trifluoromethyl)phenoxy]butan-2-yl}-3-{N-[(trifluoromethyl)sulfonyl]-L-valyl}-3-azabicyclo[3.1.0]hexane-2-carboxamide]
SARS-CoV-2 3CL protease; [4]
  Ki: 10.6 nM
[1]; [3]
  EC50: 205 nM

## Cn1nc(C(F)(F)F)cc1OCC(=O)[C@H](C[C@@H]1CCNC1=O)NC(=O)[C@@H]1[C@@H]2[C@H](CN1C(=O)[C@@H](NS(=O)(=O)C(F)(F)F)C(C)(C)C)C2(C)C [Example 6, (1R,2S,5S)-6,6-dimethyl-N-{(2S)-4-{[1-methyl-3-(trifluoromethyl)-1H-pyrazol-5-yl]oxy}-3-oxo-1-[(3S)-2-oxopyrrolidin-3-yl]butan-2-yl}-3-{3-methyl-N-[(trifluoromethyl)sulfonyl]-L-valyl}-3-azabicyclo[3.1.0]hexane-2-carboxamide]
SARS-CoV-2 3CL protease; [4]
  Ki: 19.8 nM
[1]; [3]
  EC50: 735 nM

## Cn1nc(C(F)(F)F)cc1OCC(=O)[C@H](C[C@@H]1CCNC1=O)NC(=O)[C@@H]1[C@@H]2[C@H](CN1C(=O)[C@@H](NS(C)(=O)=O)C(C)(C)C)C2(C)C [Example 7, (1R,2S,5S)-6,6-dimethyl-3-[3-methyl-N-(methylsulfonyl)-L-valyl]-N-{(2S)-4-{[1-methyl-3-(trifluoromethyl)-1H-pyrazol-5-yl]oxy}-3-oxo-1-[(3S)-2-oxopyrrolidin-3-yl]butan-2-yl}-3-azabicyclo[3.1.0]hexane-2-carboxamide]
SARS-CoV-2 3CL protease; [4]
  Ki: 2.88 nM
[1]; [3]
  EC50: 1260 nM

## Cn1nc(C(F)(F)F)cc1OCC(=O)[C@H](C[C@@H]1CCNC1=O)NC(=O)[C@@H]1[C@@H]2[C@H](CN1C(=O)[C@@H](NC(=O)C(F)(F)F)C(C)(C)C)C2(C)C [Example 8, (1R,2S,5S)-6,6-dimethyl-3-[3-methyl-N-(trifluoroacetyl)-L-valyl]-N-{(2S)-4-{[1-methyl-3-(trifluoromethyl)-1H-pyrazol-5-yl]oxy}-3-oxo-1-[(3S)-2-oxopyrrolidin-3-yl]butan-2-yl}-3-azabicyclo[3.1.0]hexane-2-carboxamide]
SARS-CoV-2 3CL protease; [4]
  Ki: 2.87 nM
[1]; [3]
  EC50: 49.1 nM

## CC(C)[C@H](NC(=O)C(F)(F)F)C(=O)N1C[C@H]2[C@@H]([C@H]1C(=O)N[C@@H](C[C@@H]1CCNC1=O)C(=O)COc1cc(C(F)(F)F)nn1C)C2(C)C [Example 9, (1R,2S,5S)-6,6-dimethyl-N-{(2S)-4-{[1-methyl-3-(trifluoromethyl)-1H-pyrazol-5-yl]oxy}-3-oxo-1-[(3S)-2-oxopyrrolidin-3-yl]butan-2-yl}-3-[N-(trifluoroacetyl)-L-valyl]-3-azabicyclo[3.1.0]hexane-2-carboxamide, trifluoroacetate salt]
SARS-CoV-2 3CL protease; [4]
  Ki: 42.8 nM
[1]; [3]
  EC50: 265 nM

## CC(C)(C)[C@H](NS(=O)(=O)C(F)(F)F)C(=O)N1C[C@H]2[C@@H]([C@H]1C(=O)N[C@@H](C[C@@H]1CCNC1=O)C(=O)COc1cccc(C(F)(F)F)c1)C2(C)C [Example 10, (1R,2S,5S)-6,6-dimethyl-3-{3-methyl-N-[(trifluoromethyl)sulfonyl]-L-valyl}-N-{(2S)-3-oxo-1-[(3S)-2-oxopyrrolidin-3-yl]-4-[3-(trifluoromethyl)phenoxy]butan-2-yl}-3-azabicyclo[3.1.0]hexane-2-carboxamide]
SARS-CoV-2 3CL protease; [4]
  Ki: 8.34 nM
[1]; [3]
  EC50: 167 nM
